Results: US20250282720A1, “ALKYLSULFENYL THIOCARBONATES: PRECURSORS TO HYDROPERSULFIDES POTENTLY ATTENUATE OXIDATIVE STRESS” (The Johns Hopkins University, priority 2021, published 2025)

What was measured:
[1] = Decomposition of precursors in the presence of thiol (NAC / N-acetyl cysteine methyl ester), HPLC; format: physicochemical; conditions: 5 equiv NAC, PBS pH 7.4, HPLC
Procedure: Initially, the decomposition of 1a was analyzed in the presence of 5 equiv of N-acetylcysteine (NAC) in PBS (pH 7.4) by HPLC. […] To investigate the mechanism, this reaction was monitored by UPLC-MS. […] Additionally, a small amount of unsymmetrical dialkyl polysulfide (pink highlight, R^1SSnSR^2, n=0-3) is observed, likely formed via NAC reaction with symmetrical dialkyl polysulfides (Scheme 1-5, eq. 7). As expected, a new peak at 5.65 min corresponding to N-acetyl cysteine-thiocarbonate 9a also is observed, confirming thiol attack at the perthiocarbonate carbonyl carbon of 1a to release RSSH. Due to the unstable nature of RSSH under these experimental conditions, the yield of the by-product 9a was measured as an indication of RSSH yield. The observation of RSSH-derived polysulfides formation as major products led us to anticipate the efficient formation of by-product 9a. […] The lower observed yield of 9a is likely due to its further reaction with RSSH under these conditions. […]
To a solution of N-acetyl cysteine methyl ester (500 μM) in pH 7.4 phosphate buffer saline (100 mM) containing DTPA (100 μM), precursor 1a or 8 (100 μM) was added. […] At different time points, an aliquot of the reaction mixture (500 μL) was withdrawn and transferred to pre-cooled 0.1% formic acid (500 μL) and analyzed using HPLC. […]

H9c2 cardiac myoblasts [2] = test: H9c2 cell protection from H2O2-mediated oxidative stress, CCK-8; format: cell-based, rat; conditions: then H2O2 200 μM
Procedure: The cytoprotective effects of 1a was then measured against oxidative stress.
H9c2 embryonic rat heart myoblasts were obtained from the American Type Culture Collection. Cells were grown in Dulbecco's minimal essential medium (DMEM), supplemented with fetal bovine serum (FBS) 10%, penicillin 100 U/mL and streptomycin 100 μg/mL. They were propagated in T75-flasks, split before reaching 70-80% confluence (usually every day or every second day), and used within 11 passages. Cells were passaged to tissue culture treated 96-well microtiter plates at the specified density in 180 μL volumes and incubated for 24 h.
Cells were seeded at a density of 5×10^3 cells/well. After 24 h, precursor 1a or by-product 4a was added at 20 μL volumes using DMSO:H2O (<0.01% DMSO as the vehicle). Cells were incubated for 2 h before media was removed and the cells gently washed with PBS (pH 7.4). Then, 180 μL of fresh media and 20 μL H2O2 diluted into H2O were added and cells were incubated for an additional 2 h. At the completion of H2O2 exposure, each well is carefully washed 3 times with PBS (pH 7.4) before adding 100 μL of media, without-FBS, containing 10% v/v CCK-8 (Dojindo) and incubated for 3 h prior to obtaining absorbance values at 450 nm. The relative % viability was calculated as 100 times the ratio of the Abs450 (pre-treated, H2O2-exposed) over Abs450 (vehicle-treated, non H2O2-exposed).

H9c2 cardiac myoblasts [3] = test: H9c2 cell protection from H2O2-mediated oxidative stress, Sytox Green nucleic acid stain; format: cell-based, rat; conditions: Sytox viability assay, H2O2 200 μM
Procedure: Jones and Singer, 2001. […] Tominaga et al., 1999.
Cells were incubated for 2 h before media was removed and the cells gently washed with PBS (pH 7.4). Then, 180 μL of fresh media and 20 μL H2O2 diluted in H2O were added before cells were incubated for an additional 1 h.

FA fibroblasts (GM04078) = test: Cytoprotection against H2O2 stress in FA fibroblasts, CCK8; format: cell-based, human; conditions: 4 h pretreatment, H2O2 75 μM for 4 h
Procedure: FIG. 10A, pretreatment of AST with varying concentrations in FA fibroblasts (GM04078, Coriell Institute) for 4 h followed by 4 h treatment with H2O2. Viability was measured using CCK8 assay. FIG. 10B, pretreatment of AST with varying concentrations in FA fibroblasts for 4 h followed by treatment with erastin for 24 h. […] Group comparisons are determined by a one-way analysis of variance (ANOVA) with Dunnet's correction post-hoc test using GraphPad Prism 8;
Initially, we measured the cytotoxicity of AST in FA skin fibroblasts (GM04078), obtained from the Coriell Institute, to ensure that the RSSH donor itself is not cytotoxic. […] We then measured the ability of AST to confer cytoprotection in FA fibroblasts against hydrogen peroxide (H2O2) stress.

FA fibroblasts [4] = test: Protection against erastin-induced ferroptosis in FA fibroblasts; format: cell-based, human; conditions: 25 μM and 50 μM, 4 h pretreatment, erastin 24 h
Procedure: FIG. 10A, pretreatment of AST with varying concentrations in FA fibroblasts (GM04078, Coriell Institute) for 4 h followed by 4 h treatment with H2O2. Viability was measured using CCK8 assay. FIG. 10B, pretreatment of AST with varying concentrations in FA fibroblasts for 4 h followed by treatment with erastin for 24 h. Results are expressed as SEM with n≥3 for all concentrations. **P<0.005, for comparisons with the erastin group. Group comparisons are determined by a one-way analysis of variance (ANOVA) with Dunnet's correction post-hoc test using GraphPad Prism 8;
We next sought to determine whether AST would protect FA fibroblasts against erastin-induced cell death. Erastin is an inducer of ferroptosis, an iron-dependent form of cell death. It acts as an inhibitor of the cystine glutamate antiporter (system Xc), inhibiting the import of cystine, which leads to downstream depletion of glutathione (GSH) and ultimately to elevated ROS production.

FA fibroblasts [5] = test: Lipid peroxidation, C11-BODIPY (581/591) flow cytometry; format: cell-based, human; conditions: 50 μM pre-treatment for 4 h, erastin 10 μM
From the text: Blue represents DMSO-treated cells, red represents erastin treated cells, and green represents reduction of lipid peroxidation in live cells pretreated with AST;
The reduction of FXN levels in FA increases mitochondrial iron accumulation, ultimately leading to iron-dependent accumulation of lipid ROS and subsequent lipid peroxidation. […] As has been reported previously, we employed C11-BODIPY (581/591) to monitor a shift in fluorescence of oxidized C11-BODIPY. […] Dixon et al., 2012; Martinez et al., 2020.

[6] = test system: ferritin heavy chain 1 (FTH1); test: FTH1 protein expression, immunoblot; format: cell-based, human; conditions: 25 and 50 μM for 4 h, erastin 24 h
Procedure: FIG. 14A, FIG. 14B, FIG. 14C, and FIG. 14D show: FIG. 14A and FIG. 14B pretreatment of AST (25 and 50 μM) for 4 h followed by 24 h treatment with erastin ([…]) immunoblots for indicated proteins of lysates derived from FA fibroblasts. FIG. 14C and FIG. 14D, relative abundance of TFR1 and FTH1 proteins normalized to β-actin loading control. Results are the means+SEM of n=3 for all concentrations. *P<0.05, **P<0.005, comparisons with the erastin group. Group comparisons are determined by a one-way analysis of variance (ANOVA) with Dunnet's correction post-hoc test using GraphPad Prism 8. Samples were run on the same gel for SDS-Page gel electrophoresis in nonconsecutive lanes;
To test this hypothesis, we studied the effect of RSSH on TFR1 and FTH1 expression levels. We anticipated that the impacts of RSSH would result in downregulation of TFR1 and upregulation of FTH1. […] Feng et al., 2020; Park and Chung, 2019.

Compound: COC(=O)C(NC(C)=O)C(C)(C)SSC(=O)Oc1ccccc1 (centres unmarked) [Precursor 1a, Methyl 2-acetamido-3-methyl-3-((phenoxycarbonyl)disulfaneyl)butanoate]
- t1/2 of decomposition in the presence of thiol [1]: 38.4 ± 6.6 s
- cytoprotection against H2O2-induced toxicity (H9c2 cardiac myoblasts [2]; pre-treatment 4 h): dose-dependent decrease of H2O2-induced toxicity
- cytoprotection against H2O2-induced toxicity (H9c2 cardiac myoblasts [2]; pre-treatment with 5 μM for 8 h): shows protection
- cytoprotection against H2O2-mediated toxicity (H9c2 cardiac myoblasts [3]): consistently shows protective effects
- cytoprotection against H2O2 stress (FA fibroblasts (GM04078)): attenuated
- protection against erastin-induced ferroptosis (FA fibroblasts [4]): nearly complete protection
- erastin-induced lipid peroxide levels (FA fibroblasts [5]): attenuated erastin-induced lipid peroxide levels
- FTH1 protein level [6]: two-fold increase
